# In patent US10857170B1, “Molecules, compositions and methods for modulation of SIRT6” (SirTLab Corporation, priority 2015, dated 2020):
# Molecular target: T1, Human recombinant SIRT6 (Homo sapiens, UniProt Q8N6T7)
# T1 construct: six-histidine (His6); made in house; host or cells: Escherichia coli BL21
# Test: SIRT6 enzymatic activity assay (fluorogenic de-myristoylation of histone H3 peptide-AMC, trypsin-coupled)
# Format: biochemical
# Details: percentage of signal increase relative to control wells; for % activity 20 uM: compound 20 uM; for % activity Max. conc. 100 uM / % activity 100 uM: compound 100 uM
# Protocol: Human recombinant SIRT6 (sequence identifier: CAG33481.1; GI:4814651) was expressed in large scale in Escherichia coli strain BL21 as a six-histidine-tagged protein, after transformation of the expression plasmid pET28-SIRT6. The SIRT6 enzyme was purified from the bacteria culture broth in a two-step strategy. The first purification step was carried out by cation exchange chromatography on a HiTrap CM-Sepharose column (GE Healthcare) using an FPLC system. The second purification step was performed by immobilized metal ion affinity chromatography (IMAC) using a cobalt affinity column (Clontech).
# The enzymatic activity assay is carried out in 96 or 384-well microplates using the purified recombinant SIRT6 and a fluorophore-labeled peptide substrate: 7-amino-4-methylcoumarin (AMC) that is quenched through conjugation to the C-terminal end of a Lysin-myristoylated histone H3 peptide. The activity assay procedure requires two steps, both performed in the same microplate. In the first step, the substrate is incubated with the purified SIRT6 protein along with the co-substrate nicotinamide adenine dinucleotide (NAD+). Upon de-myristoylation, the liberated ε-amino group of the lysine becomes a trypsin substrate. Treatment with trypsin in the second step releases the fluorophore resulting in an increase in fluorescence. Fluorescence intensity is measured using a fluorescent plate reader (excitation and emission at 370 nm and 450 nm, respectively). The fluorescence signal is directly proportional to SIRT6 enzymatic activity.
# In the primary screening, compounds from a library (ChemDiv Inc.) were tested at a single concentration of 20 micromolar for their potential to modulate SIRT6 enzymatic activity. The assay was carried out in 384-well black well plates and all liquid handling was done using a robotic liquid handler. Purified recombinant SIRT6 (1 micromolar) was pre-incubated with each compound (or DMSO in control wells) for 15 minutes at room temperature. The first stage of the assay was initiated by adding a ‘substrate solution’ containing the myristoylated histone H3 peptide and NAD+(for final concentrations of 25 micromolar and 20 micromolar, respectively). After one hour incubation at 37° C., a Trypsin solution (6 mg/mL) was added for 30 minutes at room temperature. Fluorescence intensity was measured using a fluorescent plate reader (Tecan) with excitation at 370 nm and emission at 450 nm. The effect of each tested compound was evaluated by the change in the fluorescence intensity compared to control wells. […] To validate the primary screening results, each of the primary “hits” was re-tested, first at concentration of 20 micromolar in duplicates and later at a serial dilution ranging from 100 to 0.2 micromolar in triplicates.
# T1 sequence (Q8N6T7 whole entry): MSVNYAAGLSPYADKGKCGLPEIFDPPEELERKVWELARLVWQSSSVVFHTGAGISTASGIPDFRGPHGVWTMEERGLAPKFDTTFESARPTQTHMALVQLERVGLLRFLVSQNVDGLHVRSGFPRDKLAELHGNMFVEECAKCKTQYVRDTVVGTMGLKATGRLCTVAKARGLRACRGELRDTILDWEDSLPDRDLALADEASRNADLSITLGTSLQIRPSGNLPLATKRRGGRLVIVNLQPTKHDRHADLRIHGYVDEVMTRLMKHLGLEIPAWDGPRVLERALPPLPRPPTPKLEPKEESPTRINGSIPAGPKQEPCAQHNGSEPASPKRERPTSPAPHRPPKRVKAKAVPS
Structure (SMILES),% activity 20 uM (Table 1),% activity Max. conc. 100 uM (Table 1),% activity 20 uM (Table 2),% activity 100 uM (Table 2)
C=C(CCOc1ccccc1)N(CCCN(C)C)C1=Nc2c(C)cccc2C1 [A],263%,255%,–,–
Cc1cccc2c1N=C(N(CCCN(C)C)C(=O)CCOc1ccccc1)C2 [B],287%,252%,–,–
C=C1Oc2cc(C[C@@H]3C[C@H](CO)[C@H](O)[C@H](C)[C@H]3O)ccc2C2=C1CCCC2 [C],70%,195%,–,–
CC1=CC(C)(C)Nc2ccc(OC(=O)c3cccs3)cc21 [compound 5],–,–,39%,54%
Cc1ccnc(NC(c2ccc(C)cc2C)c2ccc3cccnc3c2O)c1 (stereo not shown) [compound 6],–,–,30%,28%
CCc1nnc(NC(=O)CSc2nc(N)nc(SC)c2C#N)s1 [compound 8],–,–,25%,25%
C=C(CN1c2ccccc2C(C)(C)C12C=Cc1c(ccc3ccccc13)C2)NC (stereo not shown) [compound 10],–,–,25%,27%
C=C1N(C)C(=O)c2c(nc3n2CC(c2ccc(Br)cc2)=NN3)N1C [compound 11],–,–,41%,99%
O=C1Nc2ccc(Cl)cc2C(c2ccccc2)C1Nc1ccc(Oc2ccccc2)cc1 (stereo not shown) [compound 13],–,–,24%,86%
N#Cc1c(N)oc(C2=CC=CC2)c1-c1ccco1 [compound 14],–,–,28%,48%
O=c1cc(O)c2sc3nc4c(cc3c2[nH]1)CCCCC4 [compound 15],–,–,37%,75%
C=C1Nc2nc(OC(C)=O)c(C)c(C)c2S1 [compound 16],–,–,40%,197%
COc1ccc(-c2nn3c(C)nnc3s2)cc1N [compound 17],–,–,21%,18%
C=C(OC(C)CC)C1=C(C)NC2=C(C(=C)C(C(=C)OC)C(C)C2)C1c1ccc(N(CC)CC)cc1 (stereo not shown) [compound 19],–,–,37%,61%
COc1ccc(-c2csc3c(NN)ncnc23)cc1 [compound 20],–,–,78%,22%
C=S(=C)(c1cc(Cl)ccc1Cl)n1c(/C=C/c2ccc(SC)cc2)nc2ccccc21 [compound 21],–,–,38%,36%
CCN1CCCC1CNC(=O)C1CCN(c2cc(C)nc3c(-c4ccc(Cl)cc4)c(C)nn23)CC1 (stereo not shown) [compound 22],–,–,32%,29%
Cc1ccccc1CSc1ncc(Sc2ccccc2)c(C(=O)NCc2ccccc2)n1 [compound 23],–,–,55%,65%
CC[C@H]1O[C@@H](Cc2ccc3c(c2C)CC(=O)C(C)=C3C)[C@H](C)[C@@H](O)[C@H]1C [compound 26],–,–,21%,56%
C=C1Cc2ccc(C)cc2C2=C1C(c1ccc(F)cc1)=C(NCCOC)C2 [compound 28],–,–,134%,246%
C=C1Oc2ccc(C)cc2-c2oc(NCCOC)c(-c3ccc(OCC)cc3)c21 [compound 29],–,–,82%,226%
COCCNc1oc2c(c1-c1ccc(C)cc1)c(=O)oc1c(C)cccc12 [compound 30],–,–,149%,111%
Cc1ccc(NC(=O)c2nnc(-c3ccc(NC(=O)c4cccs4)cc3)s2)cc1 [compound 31],–,–,29%,16%
C=C(CN1C(=C)C(c2nc(-c3ccccc3)no2)=C(C)C=C1C)NC1CCCCC1 [compound 33],–,–,53%,221%
C=C1Cc2c(cccc2CC)C=C1C1=CCC(NC(=O)CCC(=O)NCCCN2CCC(C)CC2)=N1 [compound 37],–,–,42%,35%
C=S(=O)(C1=CC=C(c2ccc(N3CCCCC3)nn2)C1)N1CCCC(C(=O)OCC)C1 (stereo not shown) [compound 38],–,–,52%,52%
C=C(c1ccc(-c2nc3ccccc3n(CC(C)C)c2=O)cc1)N1CCN(c2ccccc2)CC1 [compound 46],–,–,51%,56%
C=C(c1ccc(-c2ccc(N3CCCCC3)nc2)cc1)N(C)C [compound 48],–,–,40%,54%

# Second part, the molecule after the results:
% activity 20 uM (Table 1),% activity Max. conc. 100 uM (Table 1),% activity 20 uM (Table 2),% activity 100 uM (Table 2),Structure (SMILES)
–,–,88%,428%,CCc1nc(-c2ccccc2)c2cc(Cl)ccc2n1 [compound 1]
–,–,29%,46%,C=C(Nc1ccc(Cl)cc1)N1c2ccc(OCC)cc2C(C)=CC1(C)C [compound 2]
–,–,29%,56%,C=C(Cc1ccc2c(c1)C(C)=CC(C)(C)N2)Cc1cccc2ccccc12 [compound 4]
–,–,118%,162%,Cn1c(-c2ccc3[nH]c(-c4ccc(N)cc4)nc3c2)nc2cc(N)ccc21 [compound 7]
–,–,22%,48%,C=C(CS)Nc1ccc(CCCCC)cc1 [compound 9]
–,–,36%,59%,Cc1nc2sc(-c3nc4ccccc4[nH]3)c(N)c2c(C)c1Cl [compound 12]
–,–,53%,94%,CC1=NCC(c2ccc(O)cc2O)=C1c1ccc(Cl)cc1 [compound 18]
–,–,77%,47%,Cc1cc(NC(=O)CSc2nnc(-c3sc4ncccc4c3N)n2C)ccc1Cl [compound 24]
–,–,26%,22%,Cc1cc(Nc2ccc(NC(=O)Nc3ccc4c(c3)CCCO4)cc2)nc(NC2CCCCC2)n1 [compound 25]
–,–,59%,137%,O=C(NCc1cccc(Cl)c1)c1noc2c1CSc1ccccc1-2 [compound 27]
–,–,101%,73%,C=C(CN1C(=C)C(c2nc(-c3ccccc3)no2)=C(C)C=C1C)NCCc1ccc(CC)c(CC)c1 [compound 32]
–,–,154%,324%,C=C(Oc1ccc2cnccc2c1)C1=C(N)c2ccccc2C1 [compound 35]
–,–,45%,56%,C=C(Nc1ccc(CC)c(Cl)c1)c1cc(N)cc2cn[nH]c12 [compound 36]
–,–,32%,54%,C=C(Nc1ccc(CCC)cc1)C1=C(C)c2c(nc(C)nc2N(C)c2ccc(C(C)C)cc2)C1 [compound 39]
–,–,62%,92%,C=C(CC)Nc1ccc(-c2cc(C(=O)NCCCN3CCCCCC3)c3ccccc3n2)cc1 [compound 40]
–,–,40%,110%,CCC(=O)Nc1ccc(-c2cc(C(=O)NCCCN3CCCCC3C)c3ccccc3n2)cc1 (stereo not shown) [compound 41]
–,–,61%,87%,C=C(CC)Nc1ccc(-c2cc(C(=O)NCCCN3CCCC(C)C3)c3ccccc3n2)cc1 (stereo not shown) [compound 42]
–,–,96%,119%,C=C(NCCN1CCN(C)CC1)c1cc(-c2ccc(NC(C)=O)cc2)nc2ccc(C)cc12 [compound 43]
–,–,63%,50%,C=C(NCCC)c1ccc(-c2ccc(N3CCCCC3)nc2)cc1 [compound 47]
